Source: publication PMC5421785, “Citrullination only infrequently impacts peptide binding to HLA class II MHC” (PLoS ONE, 2017)
Where two headings read alike, the source gives them in different places. Square brackets hold non-standard residues; d marks the D form. Ends that are not written are not given here. Peptide text beside a SMILES is read from it. Cit = NC(=O)NCCC[C@H](N)C(=O)O

Assays:
HLA-DRB1*04:01 = biological target: T1, HLA-DRB1*04:01 (Homo sapiens, UniProt P01903+P01911, A100K/A169T/F76Y/I96L/K127E/L162R/M171V/N62H/P40V/Q125Y/R42H/S133A/S149N/S66Y/V115G/V209L/W38E); test: HLA class II peptide binding, inhibition of radiolabeled peptide binding to purified MHC
T1 construct: EBV transformed homozygous cell lines were used as sources of MHC molecules; endogenous in cells; host or cells: EBV transformed homozygous cell lines

HLA-DRB1*01:01 = biological target: T2, HLA-DRB1*01:01 (Homo sapiens, UniProt P01903+P01911, A100R/D57E/F55L/F60I/F76Y/I96L/L162R/M171V/P40L/Q125E/R42F/V115G/Y59C); test: as above
T2 construct: EBV transformed homozygous cell lines were used as sources of MHC molecules; endogenous in cells; host or cells: EBV transformed homozygous cell lines

[1] = citrullinated 15-mer (X), purified MHC, inhibition of radiolabeled peptide binding, dash = IC50 >40,000 nM, read-out: DRB1*04:01 binding capacity, Cit peptide (IC50 nM)
[2] = citrullinated 15-mer (X), purified MHC, inhibition of radiolabeled peptide binding, dash = IC50 >40,000 nM, read-out: DRB1*01:01 binding capacity, Cit peptide (IC50 nM)
[3] = citrullinated 15-mer peptide (X = citrulline), purified HLA-DRB1*04:01, read-out: DRB1*04:01 binding capacity, Cit peptide (IC50 nM)
[4] = citrullinated 15-mer peptide (X = citrulline), purified HLA-DRB1*01:01, read-out: DRB1*01:01 binding capacity, Cit peptide (IC50 nM)
[5] = wild-type (unmodified Arg) 15-mer peptide, purified HLA-DRB1*04:01, read-out: DRB1*04:01 binding capacity, WT peptide (IC50 nM)
[6] = wild-type (unmodified Arg) 15-mer peptide, purified HLA-DRB1*01:01, read-out: DRB1*01:01 binding capacity, WT peptide (IC50 nM)
[7] = read-out: DRB1*04:01 binding capacity, WT peptide (IC50 nM)
[8] = read-out: DRB1*01:01 binding capacity, WT peptide (IC50 nM)
[9] = ratio of WT IC50 to Cit IC50, >1 = citrullination increases binding

CSCC[C@H](NC(=O)[C@H](CCC(=O)O)NC(=O)[C@H](CCC(=O)O)NC(=O)[C@H](CCC(=O)O)NC(=O)[C@H](Cc1ccc(O)cc1)NC(=O)[C@H](CC(C)C)NC(=O)[C@H](CC(=O)O)NC(=O)CNC(=O)[C@@H](N)CC(C)C)C(=O)N[C@@H](CCCNC(=N)N)C(=O)N[C@@H](CCC(=O)O)C(=O)N[C@@H](CC(C)C)C(=O)N[C@@H](CCCNC(N)=O)C(=O)N[C@@H](CCCNC(=N)N)C(=O)N[C@@H](CCC(N)=O)C(=O)O [LGDLYEEEMRELXRQ]
IC50 (HLA-DRB1*04:01; [1]): > 40000 nM
IC50 (HLA-DRB1*01:01; [2]): 12500 nM

C[C@H](NC(=O)CNC(=O)[C@@H]1CCCN1C(=O)[C@@H]1CCCN1C(=O)CNC(=O)[C@H](CCC(N)=O)NC(=O)[C@H](C)NC(=O)CNC(=O)[C@H](CCCNC(N)=O)NC(=O)[C@H](C)NC(=O)CNC(=O)[C@H](CCCCN)NC(=O)[C@@H]1CCCN1C(=O)CNC(=O)[C@@H](N)[C@@H](C)O)C(=O)O [TGPKGAXGAQGPPGA] (H-TGPKGA[Cit]GAQGPPGA-OH)
IC50 (HLA-DRB1*04:01; [3]): > 40000 nM
IC50 (HLA-DRB1*01:01; [4]): 2690 nM

CC(C)C[C@H](NC(=O)[C@@H](N)CO)C(=O)N[C@@H](Cc1ccc(O)cc1)C(=O)N[C@@H](C)C(=O)N[C@@H](CO)C(=O)N[C@@H](CO)C(=O)N1CCC[C@H]1C(=O)NCC(=O)NCC(=O)N[C@H](C(=O)N[C@@H](Cc1ccc(O)cc1)C(=O)N[C@@H](C)C(=O)N[C@H](C(=O)N[C@@H](CCCNC(N)=O)C(=O)N[C@@H](CO)C(=O)O)[C@@H](C)O)C(C)C [SLYASSPGGVYATXS]
IC50 (HLA-DRB1*04:01; [1]): 1280 nM
IC50 (HLA-DRB1*01:01; [2]): 16 nM

PGLRGLPGKDGETGA [Collagen 626 WT]
IC50 (HLA-DRB1*04:01; [5]): > 40000 nM
IC50 (HLA-DRB1*01:01; [6]): 259 nM

CSCC[C@H](NC(=O)[C@H](CCC(=O)O)NC(=O)[C@H](CCC(=O)O)NC(=O)[C@H](CCCCN)NC(=O)[C@H](CCSC)NC(=O)[C@@H](N)CC(N)=O)C(=O)N[C@@H](C)C(=O)N[C@@H](CCCNC(=N)N)C(=O)N[C@@H](Cc1c[nH]cn1)C(=O)N[C@@H](CC(C)C)C(=O)N[C@@H](CCCNC(N)=O)C(=O)N[C@@H](CCC(=O)O)C(=O)N[C@@H](Cc1ccc(O)cc1)C(=O)N[C@@H](CCC(N)=O)C(=O)N[C@@H](CC(=O)O)C(=O)O [NMKEEMARHLXEYQD]
IC50 (HLA-DRB1*04:01; [3]): > 40000 nM
IC50 (HLA-DRB1*01:01; [4]): 5060 nM

RTYSLGSALRPSTSR [Vimentin 36 WT]
IC50 (HLA-DRB1*04:01; [7]): 769 nM
IC50 (HLA-DRB1*01:01; [8]): 11 nM

CC[C@H](C)[C@H](NC(=O)[C@H](CCCNC(N)=O)NC(=O)[C@H](CS)NC(=O)[C@@H]1CCCN1)C(=O)N[C@@H](CS)C(=O)N[C@H](C(=O)N[C@@H](CS)C(=O)N[C@@H](CC(=O)O)C(=O)N[C@H](C(=O)NCC(=O)N[C@H](C(=O)N[C@H](C(=O)N[C@@H](CC(C)C)C(=O)N[C@@H](CS)C(=O)N[C@@H](CC(=O)O)C(=O)O)C(C)C)[C@@H](C)O)[C@@H](C)O)C(C)C [PCXICVCDTGTVLCD] (H-PC[Cit]ICVCDTGTVLCD-OH; N-terminus and C-terminus assumed)
DRB1*04:01 binding capacity, WT/cit ratio (HLA-DRB1*04:01; [9]): 1.2
DRB1*01:01 binding capacity, WT/cit ratio (HLA-DRB1*01:01; [9]): 0.463

CC(C)C[C@H](NC(=O)[C@H](CC(N)=O)NC(=O)[C@@H](NC(=O)[C@H](CCC(=O)O)NC(=O)[C@H](CCCNC(=N)N)NC(=O)[C@H](CC(C)C)NC(=O)[C@H](CC(N)=O)NC(=O)[C@@H](N)CC(C)C)[C@@H](C)O)C(=O)N[C@@H](CC(=O)O)C(=O)N[C@@H](CO)C(=O)N[C@@H](CC(C)C)C(=O)N1CCC[C@H]1C(=O)N[C@@H](CC(C)C)C(=O)N[C@H](C(=O)N[C@@H](CC(=O)O)C(=O)O)C(C)C [Vimentin 421 WT]
IC50 (HLA-DRB1*04:01; [5]): 3740 nM
IC50 (HLA-DRB1*01:01; [6]): 96 nM

CSCC[C@H](NC(=O)[C@H](Cc1ccc(O)cc1)NC(=O)[C@H](CCC(N)=O)NC(=O)[C@H](CC(C)C)NC(=O)[C@@H]1CCCN1C(=O)[C@H](CC(=O)O)NC(=O)[C@@H]1CCCN1C(=O)CNC(=O)[C@H](CCCCN)NC(=O)[C@H](CCC(=O)O)NC(=O)[C@H](CCCNC(=N)N)NC(=O)[C@@H]1CCCN1C(=O)CNC(=O)[C@@H](N)CC(C)C)C(=O)N[C@@H](CCCNC(N)=O)C(=O)O [LGPREKGPDPLQYMX] (H-LGPREKGPDPLQYM[Cit]-OH)
IC50 (HLA-DRB1*04:01; citrullinated peptide as listed (X at Cit position), read-out: DRB1*04:01 binding capacity Cit peptide (IC50 nM)): > 40000 nM
IC50 (HLA-DRB1*04:01; value of the wild-type (non-citrullinated) counterpart of the listed peptide, read-out: DRB1*04:01 binding capacity WT peptide (IC50 nM)): > 40000 nM
IC50 (HLA-DRB1*01:01; citrullinated peptide as listed (X at Cit position), read-out: DRB1*01:01 binding capacity Cit peptide (IC50 nM)): 19700 nM

QGKSRLGDLYEEEMR [Vimentin 141 WT]
IC50 (HLA-DRB1*04:01; [7]): > 40000 nM
IC50 (HLA-DRB1*01:01; [8]): 34600 nM

FKNTRTNEKVELQEL [Vimentin 96 WT]
IC50 (HLA-DRB1*04:01; [7]): 1790 nM
IC50 (HLA-DRB1*01:01; [8]): 4450 nM

ERGFPGLPGPSGEPG [Collagen 991 WT]
IC50 (HLA-DRB1*04:01; [5]): > 40000 nM
IC50 (HLA-DRB1*01:01; [6]): 1280 nM

CC(C)C[C@H](NC(=O)[C@H](C)NC(=O)[C@H](CO)NC(=O)CN)C(=O)N[C@@H](CCCNC(=N)N)C(=O)N1CCC[C@H]1C(=O)N[C@@H](CO)C(=O)N[C@H](C(=O)N[C@@H](CO)C(=O)N[C@@H](CCCNC(=N)N)C(=O)N[C@@H](CO)C(=O)N[C@@H](CC(C)C)C(=O)N[C@@H](Cc1ccc(O)cc1)C(=O)N[C@@H](C)C(=O)N[C@@H](CO)C(=O)O)[C@@H](C)O [Vimentin 41 WT]
IC50 (HLA-DRB1*04:01; [7]): 860 nM
IC50 (HLA-DRB1*01:01; [8]): 3.4 nM

CC[C@H](C)[C@H](NC(=O)[C@H](CCCNC(=N)N)NC(=O)[C@H](CO)NC(=O)[C@H](CCC(=O)O)NC(=O)[C@H](CCC(=O)O)NC(=O)CNC(=O)[C@H](CCC(=O)O)NC(=O)[C@H](CC(C)C)NC(=O)[C@H](CC(C)C)NC(=O)[C@H](CCCCN)NC(=O)[C@@H](N)CCCNC(N)=O)C(=O)N[C@@H](CO)C(=O)N[C@@H](CC(C)C)C(=O)N1CCC[C@H]1C(=O)N[C@@H](CC(C)C)C(=O)O [XKLLEGEESRISLPL]
IC50 (HLA-DRB1*04:01; [3]): 1890 nM
IC50 (HLA-DRB1*01:01; [4]): 853 nM

CC(C)C[C@H](NC(=O)[C@H](CCC(=O)O)NC(=O)[C@H](CCC(N)=O)NC(=O)[C@H](CC(C)C)NC(=O)[C@H](CCC(=O)O)NC(=O)[C@@H](NC(=O)[C@H](CCCCN)NC(=O)[C@H](CCC(=O)O)NC(=O)[C@H](CC(N)=O)NC(=O)[C@@H](N)[C@@H](C)O)C(C)C)C(=O)N[C@@H](CC(N)=O)C(=O)N[C@@H](CC(=O)O)C(=O)N[C@@H](CCCNC(N)=O)C(=O)N[C@@H](Cc1ccccc1)C(=O)N[C@@H](C)C(=O)O [TNEKVELQELNDXFA] (H-TNEKVELQELND[Cit]FA-OH)
IC50 (HLA-DRB1*04:01; [1]): > 40000 nM
IC50 (HLA-DRB1*01:01; [2]): 5570 nM

CC(C)C[C@H](NC(=O)CNC(=O)[C@@H]1CCCN1C(=O)[C@H](Cc1ccccc1)NC(=O)CNC(=O)[C@H](CCCNC(N)=O)NC(=O)[C@@H](N)CCC(=O)O)C(=O)N1CCC[C@H]1C(=O)NCC(=O)N1CCC[C@H]1C(=O)N[C@@H](CO)C(=O)NCC(=O)N[C@@H](CCC(=O)O)C(=O)N1CCC[C@H]1C(=O)NCC(=O)O [EXGFPGLPGPSGEPG] (H-E[Cit]GFPGLPGPSGEPG-OH)
IC50 (HLA-DRB1*04:01; [3]): > 40000 nM
IC50 (HLA-DRB1*01:01; [4]): 2210 nM

CC[C@H](C)[C@H](NC(=O)[C@H](CCC(=O)O)NC(=O)[C@@H](NC(=O)[C@H](CC(=O)O)NC(=O)[C@H](CC(C)C)NC(=O)[C@H](C)NC(=O)[C@@H](N)CCSC)[C@@H](C)CC)C(=O)N[C@@H](C)C(=O)N[C@H](C(=O)N[C@@H](Cc1ccc(O)cc1)C(=O)N[C@@H](CCCNC(N)=O)C(=O)N[C@@H](CCCCN)C(=O)N[C@@H](CC(C)C)C(=O)N[C@@H](CC(C)C)C(=O)N[C@@H](CCC(=O)O)C(=O)O)[C@@H](C)O [MALDIEIATYXKLLE] (H-MALDIEIATY[Cit]KLLE-OH)
IC50 (HLA-DRB1*04:01; [3]): 4950 nM
IC50 (HLA-DRB1*01:01; [4]): 64 nM

CC(C)C[C@H](NC(=O)CNC(=O)[C@@H]1CCCN1)C(=O)N[C@@H](CCCNC(N)=O)C(=O)NCC(=O)N[C@@H](CC(C)C)C(=O)N1CCC[C@H]1C(=O)NCC(=O)N[C@@H](CCCCN)C(=O)N[C@@H](CC(=O)O)C(=O)NCC(=O)N[C@@H](CCC(=O)O)C(=O)N[C@H](C(=O)NCC(=O)N[C@@H](C)C(=O)O)[C@@H](C)O [PGLXGLPGKDGETGA] (H-PGL[Cit]GLPGKDGETGA-OH)
IC50 (HLA-DRB1*04:01; [3]): > 40000 nM
IC50 (HLA-DRB1*01:01; [4]): 109 nM

PPGPQGPAGEQGPRG [Collagen 121 WT]
IC50 (HLA-DRB1*04:01; [5]): > 40000 nM
IC50 (HLA-DRB1*01:01; [6]): 22400 nM

CC[C@H](C)[C@H](NC(=O)[C@H](CCC(=O)O)NC(=O)[C@H](CC(=O)O)NC(=O)[C@@H](N)CCC(N)=O)C(=O)N[C@@H](CCC(N)=O)C(=O)N[C@@H](CC(N)=O)C(=O)N[C@@H](CCSC)C(=O)N[C@@H](CCCCN)C(=O)N[C@@H](CCC(=O)O)C(=O)N[C@@H](CCC(=O)O)C(=O)N[C@@H](CCSC)C(=O)N[C@@H](C)C(=O)N[C@@H](CCCNC(=N)N)C(=O)N[C@@H](Cc1c[nH]cn1)C(=O)N[C@@H](CC(C)C)C(=O)O [Vimentin 366 WT]
IC50 (HLA-DRB1*04:01; [5]): 4550 nM
IC50 (HLA-DRB1*01:01; [6]): 7110 nM
